{"source": "patent US20240368120A1", "about": "(Terns Pharmaceuticals, Inc., priority 2023, published 2024)", "key": {"human GLP-1R receptor": {"molecular_target": "T1, human GLP-1R receptor (Homo sapiens, UniProt P43220)", "T1 construct": "expressed in transfected cells", "T1 sequence (P43220 24-463)": "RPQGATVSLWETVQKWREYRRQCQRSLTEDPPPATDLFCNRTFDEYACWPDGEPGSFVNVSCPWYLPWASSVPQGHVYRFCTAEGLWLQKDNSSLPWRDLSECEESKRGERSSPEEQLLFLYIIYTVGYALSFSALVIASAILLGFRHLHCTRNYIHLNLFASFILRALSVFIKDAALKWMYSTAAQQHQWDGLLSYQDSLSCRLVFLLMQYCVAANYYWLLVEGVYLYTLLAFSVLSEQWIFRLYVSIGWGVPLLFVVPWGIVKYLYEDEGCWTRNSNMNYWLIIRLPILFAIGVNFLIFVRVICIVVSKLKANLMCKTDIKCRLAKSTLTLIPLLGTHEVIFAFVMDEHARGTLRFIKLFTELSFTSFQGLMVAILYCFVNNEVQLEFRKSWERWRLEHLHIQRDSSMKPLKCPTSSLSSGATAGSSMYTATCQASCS", "assay": "GLP-1R low expression cell assay (cAMP TR-FRET, CHO-K1_hGLP-1Rlow_clone10 cells)", "type": "cell-based", "conditions": "cAMP TR-FRET, 30 min at 25° C.", "procedure,_shortened": "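Readout is cAMP TR-FRET after 30 min compound stimulation at 25 °C of a low-GLP-1R-expressing CHO-K1 clone (1,000 cells/well), with 10-point 3-fold serial dilutions. Percent activation versus a control GLP-1 peptide, from duplicates, was Hill-fitted to give EC50.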"}, "[1]": {"assay": "Rat pharmacokinetics, oral dosing", "type": "in vivo, Sprague-Dawley rats", "conditions": "male, Sprague-Dawley, oral dosing at 3 mg/kg, plasma"}}, "data": [{"smiles": "Cn1c(CN2CCC(c3cccc4c3OC(c3ccc(Cl)cc3F)C=C4)CC2)nc2c(OC(F)F)cc(C(=O)O)cc21", "note": "(single isomer, unassigned) [Compound 176]", "values": [{"measurement": "EC50", "setting": "human GLP-1R receptor", "result": "100 to 1000", "unit": "nM"}, {"measurement": "AUC", "setting": "[1]", "result": "500 to 2500", "unit": "ng·h/mL"}, {"measurement": "Cmax", "setting": "[1]", "result": "< 500", "unit": "ng/mL"}, {"measurement": "half-life", "setting": "[1]; read-out: Rat T1/2", "result": "< 1.5", "unit": "h"}, {"measurement": "bioavailability", "setting": "[1]", "result": "25 to 50", "unit": "%"}]}]}
